Measured values as given in PubChem BioAssay AID1963961 (Molecular Pharmacology Branch, DTP, NCI, 2024).
pIC50: −log10 of the molar value. Where “and” joins values, the source holds several entries; their conditions need not be identical. Equal entries are not always repeated.

System: K98450-129-R-PDC multicell spheroids, viability
Test: Anticancer human tumor K98450-129-R-PDC patient-derived colon adenocarcinoma cell line growth inhibition [PI3K]
Settings: for viability, T/C: stronger effect = lower value
How it was run: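 Targeted small molecules plus PI3K inhibitors, half-log dose series from Cmax (default top 10 microM), were applied to heterotypic spheroids of cancer cells with HUVEC and MSCs. Viability indicated growth inhibition.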

[1] = curve of first compound, second compound 0.0316 µM
[2] = curve of first compound, second compound 0.1 µM
[3] = curve of first compound, second compound 0.316 µM
[4] = curve of first compound, second compound 1 µM
[5] = second compound 0.0316 µM, first compound 0.0316 µM
[6] = second compound 0.0316 µM, first compound 0.1 µM
[7] = second compound 0.0316 µM, first compound 0.316 µM
[8] = second compound 0.0316 µM, first compound 1 µM
[9] = second compound 0.0316 µM, first compound 3.16 µM
[10] = second compound 0.0316 µM, first compound 10 µM
[11] = second compound 0.1 µM, first compound 0.0316 µM
[12] = second compound 0.1 µM, first compound 0.1 µM
[13] = second compound 0.1 µM, first compound 0.316 µM
[14] = second compound 0.1 µM, first compound 1 µM
[15] = second compound 0.1 µM, first compound 3.16 µM
[16] = second compound 0.1 µM, first compound 10 µM
[17] = second compound 0.316 µM, first compound 0.0316 µM
[18] = second compound 0.316 µM, first compound 0.1 µM
[19] = second compound 0.316 µM, first compound 0.316 µM
[20] = second compound 0.316 µM, first compound 1 µM
[21] = second compound 0.316 µM, first compound 3.16 µM
[22] = second compound 0.316 µM, first compound 10 µM
[23] = second compound 1 µM, first compound 0.0316 µM
[24] = second compound 1 µM, first compound 0.1 µM
[25] = second compound 1 µM, first compound 0.316 µM
[26] = second compound 1 µM, first compound 1 µM
[27] = second compound 1 µM, first compound 3.16 µM
[28] = second compound 1 µM, first compound 10 µM
[29] = curve of first compound, second compound 3.16 µM
[30] = curve of first compound, second compound 10 µM
[31] = second compound 3.16 µM, first compound 0.0316 µM
[32] = second compound 3.16 µM, first compound 0.1 µM
[33] = second compound 3.16 µM, first compound 0.316 µM
[34] = second compound 3.16 µM, first compound 1 µM
[35] = second compound 10 µM, first compound 0.0316 µM
[36] = second compound 10 µM, first compound 0.1 µM
[37] = second compound 10 µM, first compound 0.316 µM
[38] = second compound 10 µM, first compound 1 µM
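Note: spheroids exposed to agents for seven days before read-out.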

For `CC(Cn1ccc(-c2ccc(C#N)c(Cl)c2)n1)NC(=O)c1cc(C(C)O)[nH]n1` (stereo not given) + CC(Nc1ccc2c(c1)OCCn1cc(N3C(=O)OCC3C(F)F)nc1-2)C(N)=O, the pIC50 (curve of first compound, second compound 0.00316 µM) was under 5.00, the pIC50 (curve of first compound, second compound 0.01 µM) was under 5.00 and the pIC50 [1] was under 5.00. The pIC50 [2] was under 5.00, the pIC50 [3] was under 5.00 and the pIC50 [4] was under 5.00. The viability, T/C (second compound 0.00316 µM, first compound 0.0316 µM) was 111%, the viability, T/C (second compound 0.00316 µM, first compound 0.1 µM) was 99.6% and the viability, T/C (second compound 0.00316 µM, first compound 0.316 µM) was 105%. For the same molecule, the viability, T/C (second compound 0.00316 µM, first compound 1 µM) was 101%, the viability, T/C (second compound 0.00316 µM, first compound 3.16 µM) was 105% and the viability, T/C (second compound 0.00316 µM, first compound 10 µM) was 106%. The viability, T/C (second compound 0.01 µM, first compound 0.0316 µM) was 113%, the viability, T/C (second compound 0.01 µM, first compound 0.1 µM) was 98.6% and the viability, T/C (second compound 0.01 µM, first compound 0.316 µM) was 102%. It also gave a viability, T/C (second compound 0.01 µM, first compound 1 µM) of 98.4%, a viability, T/C (second compound 0.01 µM, first compound 3.16 µM) of 101% and a viability, T/C (second compound 0.01 µM, first compound 10 µM) of 111%. It also gave a viability, T/C [5] of 102%, a viability, T/C [6] of 109% and a viability, T/C [7] of 101%. The viability, T/C [8] was 96.2%, the viability, T/C [9] was 101% and the viability, T/C [10] was 102%. It also gave a viability, T/C [11] of 98.2%, a viability, T/C [12] of 100% and a viability, T/C [13] of 103%. It also gave a viability, T/C [14] of 95.2%, a viability, T/C [15] of 109% and a viability, T/C [16] of 95%. It also gave a viability, T/C [17] of 92.6%, a viability, T/C [18] of 98% and a viability, T/C [19] of 97.7%. It also gave a viability, T/C [20] of 94.1%, a viability, T/C [21] of 104% and a viability, T/C [22] of 91.9%. For the same molecule, the viability, T/C [23] was 87.7%, the viability, T/C [24] was 91.6% and the viability, T/C [25] was 91.7%. It also gave a viability, T/C [26] of 86.2%, a viability, T/C [27] of 90.4% and a viability, T/C [28] of 92.3%.
For `CC(C)n1nc(-c2ccc3oc(N)nc3c2)c2c(N)ncnc21`, the viability, T/C (compound 0.000316 µM) was 103% [middle of 4 runs], the viability, T/C (compound 0.001 µM) was 104% [middle of 4 runs] and the viability, T/C (compound 0.00316 µM) was 99.9% [middle of 4 runs]. For the same molecule, the viability, T/C (compound 0.01 µM) was 98.2% [middle of 4 runs], the viability, T/C (compound 0.0316 µM) was 95.5% [middle of 4 runs] and the viability, T/C (compound 0.1 µM) was 78.2% [middle of 4 runs]. It also gave a pIC50 (curve of compound) of under 7.00.
In the case of `CCN1CCN(Cc2ccc(Nc3ncc(F)c(-c4cc(F)c5nc(C)n(C(C)C)c5c4)n3)nc2)CC1` + Cc1nc(NC(=O)N2CCCC2C(N)=O)sc1-c1ccnc(C(C)(C)C(F)(F)F)c1, the pIC50 [1] was under 6.00, the pIC50 [2] was under 6.00 and the pIC50 [3] was under 6.00. It also gave a pIC50 [4] of under 6.00, a pIC50 [29] of under 6.00 and a pIC50 [30] of under 6.00. It also gave a viability, T/C (second compound 0.0316 µM, first compound 0.00316 µM) of 115%, a viability, T/C (second compound 0.0316 µM, first compound 0.01 µM) of 97.7% and a viability, T/C [5] of 106%. It also gave a viability, T/C [6] of 91.1%, a viability, T/C [7] of 86.9% and a viability, T/C [8] of 94.8%. For the same molecule, the viability, T/C (second compound 0.1 µM, first compound 0.00316 µM) was 115%, the viability, T/C (second compound 0.1 µM, first compound 0.01 µM) was 95.9% and the viability, T/C [11] was 99.8%. For the same molecule, the viability, T/C [12] was 93.5%, the viability, T/C [13] was 96.8% and the viability, T/C [14] was 91.1%. For the same molecule, the viability, T/C (second compound 0.316 µM, first compound 0.00316 µM) was 103%, the viability, T/C (second compound 0.316 µM, first compound 0.01 µM) was 102% and the viability, T/C [17] was 91.1%. It also gave a viability, T/C [18] of 87.7%, a viability, T/C [19] of 85.3% and a viability, T/C [20] of 96%. It also gave a viability, T/C (second compound 1 µM, first compound 0.00316 µM) of 98.3%, a viability, T/C (second compound 1 µM, first compound 0.01 µM) of 89.4% and a viability, T/C [23] of 91.2%. It also gave a viability, T/C [24] of 87.4%, a viability, T/C [25] of 84.6% and a viability, T/C [26] of 85.6%. It also gave a viability, T/C (second compound 3.16 µM, first compound 0.00316 µM) of 84.8%, a viability, T/C (second compound 3.16 µM, first compound 0.01 µM) of 80.6% and a viability, T/C [31] of 86.2%. It also gave a viability, T/C [32] of 84.7%, a viability, T/C [33] of 79.3% and a viability, T/C [34] of 83.5%. The viability, T/C (second compound 10 µM, first compound 0.00316 µM) was 73.7%, the viability, T/C (second compound 10 µM, first compound 0.01 µM) was 75.9% and the viability, T/C [35] was 70.6%. For the same molecule, the viability, T/C [36] was 67.5%, the viability, T/C [37] was 67% and the viability, T/C [38] was 70.4%.
`CNC(=O)c1ccc(N2C(=S)N(c3ccc(C#N)c(C(F)(F)F)c3)C(=O)C2(C)C)cc1F` was tested, and the viability, T/C (compound 0.0316 µM) was 105% (2×) and 88.4% and 94.7%, the viability, T/C (compound 0.1 µM) was 104% (2×) and 91.1% and 96.9% and the viability, T/C (compound 0.316 µM) was 102% (2×) and 88.4% and 109%. The viability, T/C (compound 1 µM) was 102% [middle of 4 runs], the viability, T/C (compound 3.16 µM) was 107% [middle of 4 runs] and the viability, T/C (compound 10 µM) was 113% and 111% (2×) and 90%. The pIC50 (curve of compound) was under 5.00.
`CCCS(=O)(=O)Nc1ccc(F)c(C(=O)c2c[nH]c3ncc(-c4ccc(Cl)cc4)cc23)c1F` + CC(Nc1ncnc2nc[nH]c12)c1cc2cccc(Cl)c2c(=O)n1-c1ccccc1 was tested, and the pIC50 [1] was 5.29, the pIC50 [2] was 5.22 and the pIC50 [3] was 5.28. It also gave a pIC50 [4] of 5.26, a pIC50 [29] of 5.23 and a pIC50 [30] of 5.26. It also gave a viability, T/C [5] of 118%, a viability, T/C [6] of 97.9% and a viability, T/C [7] of 106%. The viability, T/C [8] was 113%, the viability, T/C [9] was 85.5% and the viability, T/C [10] was 2.37%. For the same molecule, the viability, T/C [11] was 127%, the viability, T/C [12] was 94.6% and the viability, T/C [13] was 121%. It also gave a viability, T/C [14] of 112%, a viability, T/C [15] of 109% and a viability, T/C [16] of 3.82%. For the same molecule, the viability, T/C [17] was 96.8%, the viability, T/C [18] was 97.2% and the viability, T/C [19] was 101%. The viability, T/C [20] was 111%, the viability, T/C [21] was 89% and the viability, T/C [22] was 1.77%. For the same molecule, the viability, T/C [23] was 97%, the viability, T/C [24] was 104% and the viability, T/C [25] was 101%. It also gave a viability, T/C [26] of 120%, a viability, T/C [27] of 93.7% and a viability, T/C [28] of 2.88%. For the same molecule, the viability, T/C [31] was 97.1%, the viability, T/C [32] was 102% and the viability, T/C [33] was 95.3%. For the same molecule, the viability, T/C [34] was 112%, the viability, T/C (second compound 3.16 µM, first compound 3.16 µM) was 114% and the viability, T/C (second compound 3.16 µM, first compound 10 µM) was 3.24%. For the same molecule, the viability, T/C [35] was 96.2%, the viability, T/C [36] was 102% and the viability, T/C [37] was 105%. It also gave a viability, T/C [38] of 102%, a viability, T/C (second compound 10 µM, first compound 3.16 µM) of 94.2% and a viability, T/C (second compound 10 µM, first compound 10 µM) of 3.07%.
